Experimental data taken from PubChem BioAssay (NCI).
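Cells were grown in 96-well plates and exposed to each compound for 48 hours at five concentrations; endpoints were interpolated linearly between bracketing concentrations, or set to the highest concentration if not reached. TGI: total growth inhibition.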

Key:
Assay in all cases: DTP human tumour cell line panel, 48 h
786-0 renal = test system: 786-0 renal
A549 NSCLC = test system: A549 NSCLC
ACHN renal = test system: ACHN renal
BT-549 breast = test system: BT-549 breast
CAKI-1 renal = test system: CAKI-1 renal
CCRF-CEM leukemia = test system: CCRF-CEM leukemia
COLO 205 colon = test system: COLO 205 colon
DU-145 prostate = test system: DU-145 prostate
EKVX NSCLC = test system: EKVX NSCLC
HCC-2998 colon = test system: HCC-2998 colon
HCT-116 colon = test system: HCT-116 colon
HCT-15 colon = test system: HCT-15 colon
HL-60(TB) leukemia = test system: HL-60(TB) leukemia
HOP-62 NSCLC = test system: HOP-62 NSCLC
HS 578T breast = test system: HS 578T breast
HT29 colon = test system: HT29 colon
IGROV1 ovarian = test system: IGROV1 ovarian
K-562 leukemia = test system: K-562 leukemia
KM12 colon = test system: KM12 colon
LOX IMVI melanoma = test system: LOX IMVI melanoma
M14 melanoma = test system: M14 melanoma
MALME-3M melanoma = test system: MALME-3M melanoma
MCF7 breast = test system: MCF7 breast
MDA-MB-435 = test system: MDA-MB-435
MDA-N = test system: MDA-N
MOLT-4 leukemia = test system: MOLT-4 leukemia
NCI-H226 lung = test system: NCI-H226 lung
NCI-H23 lung = test system: NCI-H23 lung
NCI-H460 lung = test system: NCI-H460 lung
NCI-H522 lung = test system: NCI-H522 lung
NCI/ADR-RES ovarian = test system: NCI/ADR-RES ovarian
OVCAR-3 ovarian = test system: OVCAR-3 ovarian
OVCAR-4 ovarian = test system: OVCAR-4 ovarian
OVCAR-5 ovarian = test system: OVCAR-5 ovarian
OVCAR-8 ovarian = test system: OVCAR-8 ovarian
PC-3 prostate = test system: PC-3 prostate
RPMI-8226 leukemia = test system: RPMI-8226 leukemia
SF-268 CNS = test system: SF-268 CNS
SF-295 CNS = test system: SF-295 CNS
SF-539 CNS = test system: SF-539 CNS
SK-MEL-2 melanoma = test system: SK-MEL-2 melanoma
SK-MEL-28 melanoma = test system: SK-MEL-28 melanoma
SK-MEL-5 melanoma = test system: SK-MEL-5 melanoma
SK-OV-3 ovarian = test system: SK-OV-3 ovarian
SN12C renal = test system: SN12C renal
SNB-19 CNS = test system: SNB-19 CNS
SNB-75 CNS = test system: SNB-75 CNS
SR leukemia = test system: SR leukemia
SW-620 colon = test system: SW-620 colon
T-47D breast = test system: T-47D breast
TK-10 renal = test system: TK-10 renal
U251 CNS = test system: U251 CNS
UACC-257 melanoma = test system: UACC-257 melanoma
UACC-62 melanoma = test system: UACC-62 melanoma
UO-31 renal = test system: UO-31 renal
HOP-92 NSCLC = test system: HOP-92 NSCLC
MDA-MB-231 breast = test system: MDA-MB-231 breast
RXF 393 renal = test system: RXF 393 renal
A498 renal = test system: A498 renal

In the case of `O=C(CCCn1ccnc1[N+](=O)[O-])NCCn1cnc([N+](=O)[O-])c1`, the TGI (786-0 renal) is reported as > 100 µM, the TGI (A549 NSCLC) is reported as > 100 µM and the TGI (ACHN renal) is reported as > 100 µM. For the same compound, the TGI (BT-549 breast) was > 100 µM, the TGI (CAKI-1 renal) was > 100 µM and the TGI (CCRF-CEM leukemia) was > 100 µM. The TGI (COLO 205 colon) was > 100 µM, the TGI (DU-145 prostate) was > 100 µM and the TGI (EKVX NSCLC) was > 100 µM. The TGI (HCC-2998 colon) was > 100 µM, the TGI (HCT-116 colon) was > 100 µM and the TGI (HCT-15 colon) was > 100 µM. For the same compound, the TGI (HL-60(TB) leukemia) was > 100 µM, the TGI (HOP-62 NSCLC) was > 100 µM and the TGI (HS 578T breast) was > 100 µM. For the same compound, the TGI (HT29 colon) was > 100 µM, the TGI (IGROV1 ovarian) was > 100 µM and the TGI (K-562 leukemia) was > 100 µM. The TGI (KM12 colon) was > 100 µM, the TGI (LOX IMVI melanoma) was > 100 µM and the TGI (M14 melanoma) was > 100 µM. The TGI (MALME-3M melanoma) was > 100 µM, the TGI (MCF7 breast) was > 100 µM and the TGI (MDA-MB-435) was > 100 µM. The TGI (MDA-N) was > 100 µM, the TGI (MOLT-4 leukemia) was > 100 µM and the TGI (NCI-H226 lung) was > 100 µM. The TGI (NCI-H23 lung) was > 100 µM, the TGI (NCI-H460 lung) was > 100 µM and the TGI (NCI-H522 lung) was > 100 µM. For the same compound, the TGI (NCI/ADR-RES ovarian) was > 100 µM, the TGI (OVCAR-3 ovarian) was > 100 µM and the TGI (OVCAR-4 ovarian) was > 100 µM. The TGI (OVCAR-5 ovarian) was > 100 µM, the TGI (OVCAR-8 ovarian) was > 100 µM and the TGI (PC-3 prostate) was > 100 µM. The TGI (RPMI-8226 leukemia) was > 100 µM, the TGI (SF-268 CNS) was > 100 µM and the TGI (SF-295 CNS) was > 100 µM. For the same compound, the TGI (SF-539 CNS) was > 100 µM, the TGI (SK-MEL-2 melanoma) was > 100 µM and the TGI (SK-MEL-28 melanoma) was > 100 µM. The TGI (SK-MEL-5 melanoma) was > 100 µM, the TGI (SK-OV-3 ovarian) was > 100 µM and the TGI (SN12C renal) was > 100 µM. The TGI (SNB-19 CNS) was > 100 µM, the TGI (SNB-75 CNS) was > 100 µM and the TGI (SR leukemia) was > 100 µM. For the same compound, the TGI (SW-620 colon) was > 100 µM, the TGI (T-47D breast) was > 100 µM and the TGI (TK-10 renal) was > 100 µM. The TGI (U251 CNS) was > 100 µM, the TGI (UACC-257 melanoma) was > 100 µM and the TGI (UACC-62 melanoma) was > 100 µM. The TGI (UO-31 renal) was > 100 µM.
In the case of `Cc1ccc(O)c(Cc2nc3ccccc3nc2-c2cccc(Br)c2)c1`, the TGI (786-0 renal) is reported as > 100 µM, the TGI (A549 NSCLC) is reported as > 100 µM and the TGI (ACHN renal) is reported as > 100 µM. The TGI (BT-549 breast) was > 100 µM, the TGI (CAKI-1 renal) was > 100 µM and the TGI (CCRF-CEM leukemia) was > 100 µM. The TGI (COLO 205 colon) was > 100 µM, the TGI (DU-145 prostate) was > 100 µM and the TGI (EKVX NSCLC) was > 100 µM. The TGI (HCT-116 colon) was > 100 µM, the TGI (HCT-15 colon) was 66.9 µM and the TGI (HL-60(TB) leukemia) was > 100 µM. For the same compound, the TGI (HOP-62 NSCLC) was > 100 µM, the TGI (HOP-92 NSCLC) was > 100 µM and the TGI (HS 578T breast) was 66.8 µM. The TGI (HT29 colon) was > 100 µM, the TGI (IGROV1 ovarian) was > 100 µM and the TGI (K-562 leukemia) was > 100 µM. For the same compound, the TGI (KM12 colon) was > 100 µM, the TGI (LOX IMVI melanoma) was > 100 µM and the TGI (M14 melanoma) was > 100 µM. The TGI (MALME-3M melanoma) was > 100 µM, the TGI (MCF7 breast) was > 100 µM and the TGI (MDA-MB-231 breast) was > 100 µM. The TGI (MDA-MB-435) was > 100 µM, the TGI (MDA-N) was > 100 µM and the TGI (MOLT-4 leukemia) was 84.7 µM. For the same compound, the TGI (NCI-H226 lung) was > 100 µM, the TGI (NCI-H23 lung) was > 100 µM and the TGI (NCI-H460 lung) was > 100 µM. For the same compound, the TGI (NCI-H522 lung) was > 100 µM, the TGI (NCI/ADR-RES ovarian) was > 100 µM and the TGI (OVCAR-3 ovarian) was > 100 µM. The TGI (OVCAR-4 ovarian) was > 100 µM, the TGI (OVCAR-5 ovarian) was > 100 µM and the TGI (OVCAR-8 ovarian) was > 100 µM. The TGI (PC-3 prostate) was > 100 µM, the TGI (RPMI-8226 leukemia) was > 100 µM and the TGI (RXF 393 renal) was > 100 µM. For the same compound, the TGI (SF-268 CNS) was > 100 µM, the TGI (SF-295 CNS) was > 100 µM and the TGI (SF-539 CNS) was > 100 µM. For the same compound, the TGI (SK-MEL-2 melanoma) was > 100 µM, the TGI (SK-MEL-5 melanoma) was > 100 µM and the TGI (SK-OV-3 ovarian) was > 100 µM. The TGI (SN12C renal) was > 100 µM, the TGI (SNB-19 CNS) was 69.7 µM and the TGI (SNB-75 CNS) was > 100 µM. The TGI (SR leukemia) was > 100 µM, the TGI (SW-620 colon) was > 100 µM and the TGI (T-47D breast) was > 100 µM. The TGI (TK-10 renal) was > 100 µM, the TGI (U251 CNS) was > 100 µM and the TGI (UACC-257 melanoma) was > 100 µM. For the same compound, the TGI (UACC-62 melanoma) was > 100 µM and the TGI (UO-31 renal) was > 100 µM.
In the case of `C[C@H](CC[C@@H](O)C(C)(C)O)[C@H]1CC[C@@]2(C)[C@@H]3CC=C4[C@@H](CC[C@H](OC5OC(CO)C(O)C(O)C5O)C4(C)C)[C@]3(C)C(=O)C[C@]12C` (stereo partly drawn), the TGI (786-0 renal) is reported as 70.5 µM, the TGI (A498 renal) is reported as > 100 µM and the TGI (A549 NSCLC) is reported as > 100 µM. The TGI (ACHN renal) was 98.5 µM, the TGI (BT-549 breast) was > 100 µM and the TGI (CAKI-1 renal) was > 100 µM. The TGI (CCRF-CEM leukemia) was 70.9 µM, the TGI (COLO 205 colon) was > 100 µM and the TGI (DU-145 prostate) was > 100 µM. The TGI (EKVX NSCLC) was > 100 µM, the TGI (HCC-2998 colon) was > 100 µM and the TGI (HCT-116 colon) was > 100 µM. For the same compound, the TGI (HCT-15 colon) was > 100 µM, the TGI (HL-60(TB) leukemia) was 75.8 µM and the TGI (HOP-62 NSCLC) was > 100 µM. The TGI (HOP-92 NSCLC) was > 100 µM, the TGI (HS 578T breast) was > 100 µM and the TGI (HT29 colon) was > 100 µM. The TGI (IGROV1 ovarian) was 44.3 µM, the TGI (K-562 leukemia) was > 100 µM and the TGI (KM12 colon) was > 100 µM. The TGI (LOX IMVI melanoma) was > 100 µM, the TGI (M14 melanoma) was 92.1 µM and the TGI (MALME-3M melanoma) was > 100 µM. For the same compound, the TGI (MCF7 breast) was > 100 µM, the TGI (MDA-MB-231 breast) was > 100 µM and the TGI (MDA-MB-435) was > 100 µM. The TGI (MDA-N) was > 100 µM, the TGI (MOLT-4 leukemia) was > 100 µM and the TGI (NCI-H226 lung) was > 100 µM. The TGI (NCI-H23 lung) was > 100 µM, the TGI (NCI-H460 lung) was > 100 µM and the TGI (NCI-H522 lung) was > 100 µM. For the same compound, the TGI (NCI/ADR-RES ovarian) was > 100 µM, the TGI (OVCAR-3 ovarian) was > 100 µM and the TGI (OVCAR-4 ovarian) was > 100 µM. For the same compound, the TGI (OVCAR-5 ovarian) was > 100 µM, the TGI (OVCAR-8 ovarian) was > 100 µM and the TGI (PC-3 prostate) was > 100 µM. The TGI (RXF 393 renal) was > 100 µM, the TGI (SF-268 CNS) was > 100 µM and the TGI (SF-295 CNS) was > 100 µM. For the same compound, the TGI (SF-539 CNS) was > 100 µM, the TGI (SK-MEL-2 melanoma) was 69.6 µM and the TGI (SK-MEL-28 melanoma) was 77.8 µM. For the same compound, the TGI (SK-MEL-5 melanoma) was > 100 µM, the TGI (SK-OV-3 ovarian) was > 100 µM and the TGI (SN12C renal) was > 100 µM. For the same compound, the TGI (SNB-19 CNS) was > 100 µM, the TGI (SNB-75 CNS) was > 100 µM and the TGI (SW-620 colon) was > 100 µM. The TGI (T-47D breast) was > 100 µM, the TGI (TK-10 renal) was > 100 µM and the TGI (U251 CNS) was > 100 µM. For the same compound, the TGI (UACC-257 melanoma) was > 100 µM, the TGI (UACC-62 melanoma) was > 100 µM and the TGI (UO-31 renal) was > 100 µM.
